The values that follow come from patent US20220406434A1, “METHOD AND SYSTEM FOR EVALUATING OPTIMIZED CONCENTRATION TRAJECTORIES FOR DRUG ADMINISTRATION” (DEUTSCHES KREBSFORSCHUNGSZENTRUM STIFTUNG DES OEFFENTLICHEN …, priority 2019, published 2022).

In experiment [1] the test system is triple-negative breast cancer cells. The following applies: sequential but not simultaneous application of erlotinib and doxorubicin, time interval of about 24 hours; cited from earlier work.
The test system of the next experiment is CD95-HeLa cells. In words: Live-cell imaging with drug perfusion: CD95L-induced apoptosis under RL-optimized versus constant concentration trajectory. It is filed as cell-based, human. The method, then:
The experimental setup consisted of an automated live-cell microscope and infusion pumps for empty medium or CD95L stock solution placed inside a standard cell culture incubator. The microscope was combined with a surrounding, separable, autoclavable box for ensuring a sterile environment inside the incubator. Empty medium and the CD95L stock solution were guided through silicon tubes (inner diameter: 1 mm) connected to a t-shaped adapter piece. The t-adapter was connected with a microfluidic chip containing approximately 80,000 CD95-HeLa cells (human cervix carcinoma cell line overexpressing CD95 death receptors). Thereby, cells could be perfused by a mixture of CD95L stock solution and empty medium. For adjusting the CD95L concentration in each step of an experiment, a constant volume of 0.8 ml was infused. This volume comprised varying fractions of CD95L stock solution and empty medium. […] The total dose was set to 400 ng of CD95L according to a stock solution volume of 1.6 ml. Accordingly, cells could be perfused with CD95L at concentrations between zero and the stock concentration. During the experiment, images of the perfused cells were recorded every 3 minutes using the live-cell microscope. […]

Turning to `COc1cccc2c1C(=O)c1c(O)c3c(c(O)c1C2=O)C[C@@](O)(C(=O)CO)C[C@@H]3O[C@H]1C[C@H](N)[C@H](O)[C@H](C)O1` [doxorubicin], the cell death result in experiment [1] is recorded as “maximizes cell death”.

`C#Cc1cccc(Nc2ncnc3cc(OCCOC)c(OCCOC)cc23)c1` [erlotinib]: the cell death result in experiment [1] is “maximizes cell death”.

B1: CD95L: CD95 cell death ligand; binds CD95 death receptors and induces apoptosis (protein, UniProt P48023 130-281, looked up)
Tumor necrosis factor ligand …: QIGHPSPPPEKKELRKVAHLTGKSNSRSMPLEWEDTYGIVLLSGVKYKKGGLVINETGLYFVYSKVYFRGQSCNNLPLSHKVYMRNSKYPQDLVMMEGKMMSYCTTGQMWARSSYLGAVFNLTSADHLYVNVSELSLVNFEESQTFFGLYKL
With B1, the “cell death kinetics (apoptotic cell fractions)” value in the experiment on CD95-HeLa cells (first RL-optimized CD95L concentration trajectory vs constant 50 ng/ml, same total dose 400 ng, 180 minutes, FIG. 13F) was “substantially accelerated cell death kinetics”. In addition, the “cell death (apoptotic cell fractions)” value in the experiment with CD95-HeLa cells (optimized CD95L trajectory from second RL iteration vs constant concentration or first-iteration trajectory, total dose 400 ng, FIG. 14G) is given as “accelerated cell death”.
